Data published in ChEMBL document CHEMBL3763083, “Sulfasalazine in ionic liquid form with improved solubility and exposure” (Medchemcomm, 2015).
≈ marks a conversion by molar mass, not a printed value.

Experiments:
[1] = Solubility of compound in stimulated intestinal fluid at pH 6.8 measured at 0.5 to 3 hrs by LC/MS analysis; assay type: ADME; conditions: simulated gi fluid
[2] = Drug recovery in rat bile at 50 mg/kg dosed via oral gavage; assay type: ADME, organism-based; conditions: read-out: Drug recovery
[3] = Solubility of compound in stimulated GI fluid at pH 1.1 measured at 15 to 60 mins by LC/MS analysis; assay type: ADME; conditions: buffer
[4] = Tmax in rat plasma at 50 mg/kg dosed via oral gavage; assay type: ADME, organism-based
[5] = Oral bioavailability in rat plasma at 50 mg/kg dosed via gavage; assay type: ADME, organism-based
[6] = AUC(infinity) in rat at 50 mg/kg dosed via oral gavage; assay type: ADME, organism-based; design: dose 50 mg/kg, route oral, time infinity; conditions: in vivo
[7] = Thermal stability of compound after 30 mins by thermogravimetric analysis; assay type: physicochemical; conditions: 0.5 h
[8] = tested on: Liver; experiment: Drug metabolism in rat liver S9 fractions at 1 uM measured at 0 to 60 mins by LC/MS analysis; assay type: ADME, subcellular, Liver S9 fraction; conditions: s9, 1 µM
[9] = Cmax in rat plasma at 50 mg/kg dosed via oral gavage; assay type: ADME, organism-based; design: dose 50 mg/kg, route oral
[10] = Solubility of compound in saline solution after 1 hr by LC/MS analysis; assay type: physicochemical; conditions: buffer
[11] = Solubility of compound in methanol after 2 hrs; assay type: physicochemical
[12] = Solubility of compound in phosphate buffer at pH 8 after 1 hr by LC/MS analysis; assay type: physicochemical; conditions: pH 8, 1 h

SMILES	solubility [1]	dose excreted [2] [%]	solubility [3]	Tmax [4] [min]	bioavailability [5] [%]	AUC(0-inf) [6] [µM·h]	T [7] [°C]	Drug metabolism [8]	Cmax [9] [nM]	solubility [10] [µg/mL]	solubility [11]	solubility [12] [µg/mL]
C[N+](C)(C)CCO.O=C([O-])c1cc(/N=N/c2ccc(S(=O)(=O)Nc3ccccn3)cc2)ccc1O	soluble	1.8	soluble	15	5.6	9.34	214	metabolite_detected	2360	39320		
O=C(O)c1cc(/N=N/c2ccc(S(=O)(=O)Nc3ccccn3)cc2)ccc1O [SULFASALAZINE]	soluble		soluble				253	metabolite_detected		10 (≈ 0.0251 mM)	soluble	3090 (≈ 7.76 mM)
